The structures appear in SMILES notation. Converted amounts (≈) assume the structure as drawn. Where two headings read alike, the source gives them in different places. A value given as a limit tells only on which side of the number the result lay.

For one data set, the system named is INF-γ. The data set is described as follows: Cytokine assay: INF-γ production by human PBMC stimulated with PHA. The format is cell-based. The conditions noted are these: IC50 class, read-out: IFN-gamma Inhib. Summed up:
(§1)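 Human donor PBMC (1×10^5 cells/well) were activated with 2 μg/ml PHA and exposed to compounds for 48 h. Supernatant IL-17A, IL-17F and IFN-γ were measured by Luminex or ELISA. Screening used 10, 1, 0.1 and 0.01 μM; IC50 values came from semilogarithmic titrations.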

In the next data set the test system is IL-17A. The data set is described as follows: Cytokine assay: IL-17A production by human PBMC stimulated with PHA. In kind it is cell-based. The conditions noted are these: IC50 class, read-out: IL-17A Inhib. Summed up: as §1
The next data set relates to IL-17F. The data set is described as follows: Cytokine assay: IL-17F production by human PBMC stimulated with PHA. In kind it is cell-based. The settings on record: IC50 class, read-out: IL-17F Inhib. Summed up: as §1
Data set [1] can be described thus: Microsomal stability: incubation with human liver microsomes, residual parent compound by HPLC-MS/MS. In kind it is in vitro ADME. The conditions noted are these: up to 60 min, read-out: t1/2 hLM. The method, boiled down: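 Compound at 1 μM final with 0.5 mg/ml pooled human liver microsomes and NADPH regenerating system, 0.1 M potassium phosphate pH 7.4, 0.4% DMSO, 37° C, sampled up to 60 min. Residual parent measured by HPLC-MS/MS; half-life and clearance from slope of remaining % of T0.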
(Liver microsomes are a subcellular fraction often used to study metabolism.)

Data set [2] in a line: Aqueous solubility in 50 mM phosphate buffer (HPLC/DAD). The format is physicochemical. The settings on record: aqueous solubility class; for solubility at 24 h: 50 mM phosphate buffer, 23 °C, pH 7.4, aqueous buffer, kinetic from dmso stock, read-out: aq. solub. The procedure: To achieve this, the samples (final volume 500 μl, 200 μM compound concentration) were incubated for 24 hours at 23° C. under continuous shaking at 1400 rpm (Thermomixer, Eppendorf) in aqueous phosphate buffers (pH 4.0, 6.0, 7.4 and 9.0) with a final DMSO concentration of 1%. To separate the undissolved compound from the solution, the samples were centrifuged (30 min 18000 g at 23° C.). Supernatants were measured via HPLC equipped with a UV detector and concentrations were calculated according to signals of a standard curve. The standard curve was prepared by diluting a stock solution of each compound (c=0.1 mg/ml; received by adding 10 μl of 20 mM compound in DMSO to 914 μl MeCN) in a certain amount of MeCN to cover a range of 0.1 to 200 μg/ml.

[3] abbreviates: human liver microsomes 0.5 mg/ml, compound 1 μM, pH 7.4, 37° C.

With `CCOC(=O)c1c(-c2c(F)cccc2Cl)noc1-c1cnn(CC(O)CC)c1C(F)(F)F` (racemic) [Example 14, ethyl 3-(2-chloro-6-fluorophenyl)-5-[1-(2-hydroxybutyl)-5-(trifluoromethyl)-1H-pyrazol-4-yl]-1,2-oxazole-4-carboxylate], the IC50 in the data set on INF-γ (Homo sapiens, PBMC) is below 0.05 µM; with IL-17A (Homo sapiens, PBMC), below 0.05 µM; in the data set on IL-17F (Homo sapiens, PBMC) it was below 0.05 µM. Further, the half-life at 1 μM in data set [1] (setting [3]) lay within 10 to 40 min. Further, the solubility at 24 h in data set [2] was in the range of 3 to 9.99 µM (≈ 1.43 to 4.75 µg/mL).

For the molecule `CCOC(=O)c1c(-c2c(F)cccc2Cl)noc1-c1cnn(CC(O)C(F)(F)F)c1C(F)(F)F` (racemic) [Example 15, ethyl 3-(2-chloro-6-fluorophenyl)-5-[1-(3,3,3-trifluoro-2-hydroxypropyl)-5-(trifluoromethyl)-1H-pyrazol-4-yl]-1,2-oxazole-4-carboxylate], the IC50 with INF-γ (Homo sapiens, PBMC) was below 0.05 µM; in the data set on IL-17A (Homo sapiens, PBMC), below 0.05 µM; with IL-17F (Homo sapiens, PBMC), below 0.05 µM. Moreover, the half-life at 1 μM in data set [1] (setting [3]) is 2 to 9.99 min. In addition, the solubility at 24 h in data set [2] is 3 to 9.99 µM (≈ 1.55 to 5.15 µg/mL).

Take `[2H]C(C)(O)Cn1ncc(-c2onc(-c3c(F)cccc3Cl)c2-c2nccs2)c1C(F)(F)F` (racemic) [Example 31, 1-{4-[3-(2-chloro-6-fluorophenyl)-4-(1,3-thiazol-2-yl)-1,2-oxazol-5-yl]-5-(trifluoromethyl)-1H-pyrazol-1-yl}(2-^2H)propan-2-ol]: the IC50 was below 0.05 µM with INF-γ (Homo sapiens, PBMC); below 0.05 µM with IL-17A (Homo sapiens, PBMC); below 0.05 µM in the data set with IL-17F (Homo sapiens, PBMC). Further, in data set [1] (setting [3]), the half-life at 1 μM lay in the range of 40 to 100 min. The solubility at 24 h in data set [2] is below 1 µM.

Turning to `[2H]C(C)(O)Cn1ncc(-c2onc(-c3c(F)cccc3Cl)c2C(=O)OCC)c1C(F)(F)F` (racemic) [Example 32, ethyl 3-(2-chloro-6-fluorophenyl)-5-{1-[2-hydroxy(2-^2H)propyl]-5-(trifluoromethyl)-1H-pyrazol-4-yl}-1,2-oxazole-4-carboxylate], the IC50 was below 0.05 µM in the data set with INF-γ (Homo sapiens, PBMC); below 0.05 µM with IL-17A (Homo sapiens, PBMC); below 0.05 µM with IL-17F (Homo sapiens, PBMC). Moreover, the half-life at 1 μM in data set [1] (setting [3]) is 40 to 100 min. In addition, in data set [2], the solubility at 24 h was above 10 µM.

`[2H]C(C)(O)Cn1ncc(-c2onc(-c3c(F)cccc3Cl)c2C(=O)OC)c1C(F)(F)F` (racemic) [Example 33, methyl 3-(2-chloro-6-fluorophenyl)-5-{1-[2-hydroxy(2-^2H)propyl]-5-(trifluoromethyl)-1H-pyrazol-4-yl}-1,2-oxazole-4-carboxylate]: the IC50 was below 0.05 µM in the data set on INF-γ (Homo sapiens, PBMC); below 0.05 µM in the data set with IL-17A (Homo sapiens, PBMC); below 0.05 µM with IL-17F (Homo sapiens, PBMC). For the same molecule, the half-life at 1 μM in data set [1] (setting [3]) was above 100 min. The solubility at 24 h in data set [2] is above 10 µM.

Turning to `[2H]C(C)(O)Cn1ncc(-c2onc(-c3c(F)cccc3Cl)c2COC)c1C(F)(F)F` (racemic) [Example 95, 1-{4-[3-(2-chloro-6-fluorophenyl)-4-(methoxymethyl)-1,2-oxazol-5-yl]-5-(trifluoromethyl)-1H-pyrazol-1-yl}(2-^2H)propan-2-ol], the IC50 with INF-γ (Homo sapiens, PBMC) lay within 0.05 to 0.5 µM; with IL-17A (Homo sapiens, PBMC) it was 0.05 to 0.5 µM; in the data set with IL-17F (Homo sapiens, PBMC), 0.05 to 0.5 µM. The half-life at 1 μM in data set [1] (pH 7.4, human liver microsomes, 1 μM compound, 0.5 mg/ml HLM, 37° C.) was above 100 min. In data set [2], the solubility at 24 h is above 10 µM.

Regarding `CC(C)(O)Cn1ncc(-c2onc(-c3c(F)cccc3Cl)c2-c2nccs2)c1C(F)(F)F` [Example 1, 1-(4-(3-(2-chloro-6-fluorophenyl)-4-(thiazol-2-yl)isoxazol-5-yl)-5-(trifluoromethyl)-1H-pyrazol-1-yl)-2-methylpropan-2-ol], the IC50 in the data set with INF-γ (Homo sapiens, PBMC) was below 0.05 µM; in the data set with IL-17A (Homo sapiens, PBMC) it was 0.05 to 0.5 µM; in the data set on IL-17F (Homo sapiens, PBMC), 0.05 to 0.5 µM. Moreover, the half-life at 1 μM in data set [1] (setting [3]) was above 100 min. Further, the solubility at 24 h in data set [2] was above 10 µM.

Consider `OC1(Cn2ncc(-c3onc(-c4c(F)cccc4Cl)c3-c3nccs3)c2C(F)(F)F)CC1` [Example 2, 1-((4-(3-(2-chloro-6-fluorophenyl)-4-(thiazol-2-yl)isoxazol-5-yl)-5-(trifluoromethyl)-1H-pyrazol-1-yl)methyl)cyclopropanol], for which the IC50 in the data set on INF-γ (Homo sapiens, PBMC) is below 0.05 µM; in the data set with IL-17A (Homo sapiens, PBMC) it was below 0.05 µM; in the data set with IL-17F (Homo sapiens, PBMC) it was 0.05 to 0.5 µM. Further, the half-life at 1 μM in data set [1] (setting [3]) was in the range of 10 to 40 min. Further, the solubility at 24 h in data set [2] lay within 3 to 9.99 µM (≈ 1.45 to 4.84 µg/mL).

For the molecule `CCOC(=O)c1c(-c2c(F)cccc2Cl)noc1-c1cnn(CC(C)(C)O)c1C(F)(F)F` [Example 8, ethyl 3-(2-chloro-6-fluorophenyl)-5-(1-(2-hydroxy-2-methylpropyl)-5-(trifluoromethyl)-1H-pyrazol-4-yl)isoxazole-4-carboxylate], the IC50 in the data set with INF-γ (Homo sapiens, PBMC) is below 0.05 µM; in the data set with IL-17A (Homo sapiens, PBMC) it was below 0.05 µM; with IL-17F (Homo sapiens, PBMC), 0.05 to 0.5 µM. Moreover, the half-life at 1 μM in data set [1] (setting [3]) is above 100 min. Moreover, in data set [2], the solubility at 24 h was in the range of 3 to 9.99 µM (≈ 1.43 to 4.75 µg/mL).

Take `CCOC(=O)c1c(-c2c(F)cccc2Cl)noc1-c1cnn(CCC(C)(C)O)c1C(F)(F)F` [Example 9, ethyl 3-(2-chloro-6-fluorophenyl)-5-[1-(3-hydroxy-3-methylbutyl)-5-(trifluoromethyl)-1H-pyrazol-4-yl]-1,2-oxazole-4-carboxylate]: the IC50 was below 0.05 µM in the data set on INF-γ (Homo sapiens, PBMC); below 0.05 µM with IL-17A (Homo sapiens, PBMC); below 0.05 µM with IL-17F (Homo sapiens, PBMC). In addition, the half-life at 1 μM in data set [1] (setting [3]) fell in the range of 40 to 100 min. In data set [2], the solubility at 24 h was in the range of 3 to 9.99 µM (≈ 1.47 to 4.89 µg/mL).

As for `CCOC(=O)c1c(-c2c(F)cccc2Cl)noc1-c1cnn([C@H]2C[C@@](C)(O)C2)c1C(F)(F)F` [Example 10, ethyl 3-(2-chloro-6-fluorophenyl)-5-[1-(3-hydroxy-3-methylcyclobutyl)-5-(trifluoromethyl)-1H-pyrazol-4-yl]-1,2-oxazole-4-carboxylate], the IC50 in the data set on INF-γ (Homo sapiens, PBMC) is below 0.05 µM; in the data set with IL-17A (Homo sapiens, PBMC) it was below 0.05 µM; in the data set on IL-17F (Homo sapiens, PBMC), below 0.05 µM. Further, the half-life at 1 μM in data set [1] (setting [3]) is above 100 min. In addition, the solubility at 24 h in data set [2] was 3 to 9.99 µM (≈ 1.46 to 4.87 µg/mL).

Turning to `CCOC(=O)c1c(-c2c(F)cccc2Cl)noc1-c1cnn(C[C@@H](C)O)c1C(F)(F)F` [Example 12, ethyl 3-(2-chloro-6-fluorophenyl)-5-{1-[(2R)-2-hydroxypropyl]-5-(trifluoromethyl)-1H-pyrazol-4-yl}-1,2-oxazole-4-carboxylate], the IC50 in the data set with INF-γ (Homo sapiens, PBMC) is below 0.05 µM; in the data set with IL-17A (Homo sapiens, PBMC), below 0.05 µM; in the data set with IL-17F (Homo sapiens, PBMC), below 0.05 µM. Moreover, the half-life at 1 μM in data set [1] (setting [3]) was in the range of 10 to 40 min. In addition, the solubility at 24 h in data set [2] is above 10 µM.

Regarding `CCOC(=O)c1c(-c2c(F)cccc2Cl)noc1-c1cnn(C[C@H](C)O)c1C(F)(F)F` [Example 13, ethyl 3-(2-chloro-6-fluorophenyl)-5-(1-((2S)-2-hydroxypropyl)-5-(trifluoromethyl)-1H-pyrazol-4-yl)-1,2-oxazole-4-carboxylate], the IC50 in the data set on INF-γ (Homo sapiens, PBMC) was below 0.05 µM; in the data set with IL-17A (Homo sapiens, PBMC), below 0.05 µM; in the data set with IL-17F (Homo sapiens, PBMC) it was below 0.05 µM. Further, the half-life at 1 μM in data set [1] (setting [3]) is 40 to 100 min. Besides, the solubility at 24 h in data set [2] is above 10 µM.

Regarding `COC(=O)c1c(-c2c(F)cccc2Cl)noc1-c1cnn(CCC(C)(C)O)c1C` [Example 20, methyl 3-(2-chloro-6-fluorophenyl)-5-[1-(3-hydroxy-3-methylbutyl)-5-methyl-1H-pyrazol-4-yl]-1,2-oxazole-4-carboxylate], the IC50 was below 0.05 µM with INF-γ (Homo sapiens, PBMC); below 0.05 µM in the data set with IL-17A (Homo sapiens, PBMC); below 0.05 µM in the data set with IL-17F (Homo sapiens, PBMC). Further, the half-life at 1 μM in data set [1] (setting [3]) is above 100 min. Besides, in data set [2], the solubility at 24 h was above 10 µM.

With `COC(=O)c1c(-c2c(F)cccc2Cl)noc1-c1cnn([C@H]2C[C@](C)(O)C2)c1C(F)(F)F` [Example 26, methyl 3-(2-chloro-6-fluorophenyl)-5-(1-(3-hydroxy-3-methylcyclobutyl)-5-(trifluoromethyl)-1H-pyrazol-4-yl)isoxazole-4-carboxylate], the IC50 in the data set with INF-γ, in the data set with IL-17A and in the data set on IL-17F was 0.5 to 5 µM in each case. The half-life at 1 μM in data set [1] (setting [3]) lay in the range of 40 to 100 min. Besides, in data set [2], the aq. solub. entry was “+ (+: 1-2.99 μM)”.

As for `C[C@]1(O)C[C@H](n2ncc(-c3onc(-c4c(F)cccc4Cl)c3C(=O)OC3CC3)c2C(F)(F)F)C1` [Example 51, cyclopropyl 3-(2-chloro-6-fluorophenyl)-5-{1-[3-hydroxy-3-methylcyclobutyl]-5-(trifluoromethyl)-1H-pyrazol-4-yl}-1,2-oxazole-4-carboxylate], the IC50 was 0.05 to 0.5 µM with IL-17A and below 0.05 µM in the data set with IL-17F. Besides, in data set [1] (setting [3]), the half-life at 1 μM was 40 to 100 min. The solubility at 24 h in data set [2] fell in the range of 3 to 9.99 µM (≈ 1.5 to 4.99 µg/mL).
